Two molecules from US8071593B2, “2-oxo-3-benzylbenzoxazol-2-one derivatives and related compounds as Met kinase inhibitors for the treatment of tumours” (Merck Patent Gesellschaft mit beschrankter Haftung, priority 2007, dated 2011) can be followed below.

pIC50: −log10 of the molar value. Counter-ions that a name gives are not always drawn.

For orientation: melting point means the temperature of the solid-liquid transition. As a reminder, the pIC50 is −log10 of the IC50, conventionally taken in molar units. Low values mean a large IC50, high ones a small IC50.

One data set concerns the target Met kinase (Homo sapiens, UniProt P08581). The data set is described as follows: Met kinase inhibition (cell assay). The class given is cell-based.

Met kinase, sequence (P08581 25-1390): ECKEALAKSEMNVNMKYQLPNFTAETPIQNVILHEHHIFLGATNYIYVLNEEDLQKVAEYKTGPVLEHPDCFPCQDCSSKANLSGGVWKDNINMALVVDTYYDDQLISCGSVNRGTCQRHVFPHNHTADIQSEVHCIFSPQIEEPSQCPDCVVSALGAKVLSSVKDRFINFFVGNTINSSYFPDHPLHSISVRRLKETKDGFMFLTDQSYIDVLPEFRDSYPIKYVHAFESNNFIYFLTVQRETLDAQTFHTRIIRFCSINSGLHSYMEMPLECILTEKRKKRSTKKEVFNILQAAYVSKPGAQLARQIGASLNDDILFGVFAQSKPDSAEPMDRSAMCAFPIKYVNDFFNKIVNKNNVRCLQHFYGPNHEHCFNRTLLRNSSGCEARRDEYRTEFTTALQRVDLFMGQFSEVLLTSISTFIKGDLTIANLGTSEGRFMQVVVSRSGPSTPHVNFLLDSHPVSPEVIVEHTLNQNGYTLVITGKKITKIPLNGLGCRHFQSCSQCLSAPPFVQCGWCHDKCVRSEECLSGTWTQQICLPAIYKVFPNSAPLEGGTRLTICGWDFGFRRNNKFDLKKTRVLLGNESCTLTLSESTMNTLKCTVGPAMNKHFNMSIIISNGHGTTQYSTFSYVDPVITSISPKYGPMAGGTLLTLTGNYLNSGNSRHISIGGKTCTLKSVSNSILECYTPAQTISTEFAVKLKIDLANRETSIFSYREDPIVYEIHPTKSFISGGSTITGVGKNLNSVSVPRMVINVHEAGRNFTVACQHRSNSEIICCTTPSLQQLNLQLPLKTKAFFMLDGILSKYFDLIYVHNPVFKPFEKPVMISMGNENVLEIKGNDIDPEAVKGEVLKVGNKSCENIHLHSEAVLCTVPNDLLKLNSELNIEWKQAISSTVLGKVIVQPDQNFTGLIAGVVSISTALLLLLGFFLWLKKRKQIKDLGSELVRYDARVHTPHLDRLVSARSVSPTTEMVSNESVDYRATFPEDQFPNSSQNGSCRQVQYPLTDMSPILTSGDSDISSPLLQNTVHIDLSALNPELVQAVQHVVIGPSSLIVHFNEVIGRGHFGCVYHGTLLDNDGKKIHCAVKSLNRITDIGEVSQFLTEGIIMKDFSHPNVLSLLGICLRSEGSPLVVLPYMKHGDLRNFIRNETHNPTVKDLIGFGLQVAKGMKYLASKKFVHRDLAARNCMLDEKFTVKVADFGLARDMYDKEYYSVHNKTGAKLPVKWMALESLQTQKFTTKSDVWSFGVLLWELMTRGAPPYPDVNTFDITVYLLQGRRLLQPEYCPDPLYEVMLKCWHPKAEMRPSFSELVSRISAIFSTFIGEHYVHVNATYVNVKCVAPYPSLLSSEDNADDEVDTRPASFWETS

In turn, `CN(C)CCNC(=O)C(=O)Nc1cccc(Cn2c(=O)oc3cc(Cl)ccc32)c1` (as salt: hydrochloride) [Compound A141, N-[3-(6-chloro-2-oxobenzoxazol-3-ylmethyl)phenyl]-N′-(2-dimethylaminoethyl)oxalamide] registered a melting point of 273 °C.
The molecule `COC(=O)c1ccc2oc(=O)n(Cc3cccc(-c4ncc(OCCCN(C)C)cn4)c3)c2c1` [Compound A64, methyl 3-{3-[5-(3-dimethylaminopropoxy)pyrimidin-2-yl]-benzyl}-2-oxo-2,3-dihydrobenzoxazole-5-carboxylate] registered a melting point of 125 °C. This molecule gave a pIC50 against Met kinase of 6.00 to 8.00.
